Results on one compound are retold here after patent US9884874B2, “Bromodomain-inhibiting compounds and pharmaceutical composition comprising same for preventing or treating a cancer” (KAINOS MEDICINE, INC., priority 2014, dated 2018).

pIC50: −log10 of the molar value.

Data set [1] can be described thus: Pharmacokinetics in beagle dogs. Format: in vivo. The note with it: plasma, dog, 3 mg/kg. On the procedure:
For serum compound analysis, blood samples were collected by cardiac puncture over 24 hr time course. 20 μL of spiked plasma was added into a 96-well plate, adding ten volumes of internal standard (IS) in acetonitrile (ACN) to the obtained precipitated protein mixed thoroughly, centrifuged at 4,000 rpm for 10 min. 150 μL of supernatant thus obtained was transferred to another pre-labeled 96-well plate, mixed with 150 μL of water. 5 μL or 10 μL of the mixture was injected into the LC-MS system under the following conditions:
Column: API-4000+Waters UPLC (TCLM08);
Lower limit of quantification (LLOQ) was at 1 ng/mL. Pharmacokinetic parameters of half-life (T1/2), clearance (CL), maximum plasma concentration (Cmax), mean residence time (MRT) and bioavailability (F %), plasma exposure (AUC) of the compound were calculated using Phoenix WinNonlin 6.3 (non-compartmental model).
Further, pharmacokinetics of Compound 1 in dog was evaluated in beagle dogs following IV administration at 3 mg/kg and PO administration at 3 mg/kg dose level, respectively.

Data set [2] deals with NCI-H526 (variant small cell lung cancer). Briefly: Anti-proliferative activity, NCI-H526. The note with it: Homo sapiens, read-out: Cell proliferation, IC50. The data set is classed as cell-based.
The subject of data set [3] is A375 (malignant melanoma). Nature of the data set: Anti-proliferative activity, A375. The data set is classed as cell-based. The note with it: Homo sapiens, A-375, read-out: Cell proliferation, IC50.
Data set [4] has as its system HL60 (acute promyelocytic leukemia). Nature of the data set: Anti-proliferative activity, HL60. Format: cell-based. The note with it: Homo sapiens, HL-60, read-out: Cell proliferation, IC50.
Data set [5] has as its system LnCAP (human prostatic adenocarcinoma cell line). Nature of the data set: Anti-proliferative activity test (CellTiter-Glo), LnCAP. Format: cell-based. As to conditions: first value of LnCAP/MV4-11 cell, read-out: Cell proliferation IC50 (LnCAP). The procedure: IC50 (uM) of the compounds obtained in Examples 1 to 18 against hematological cancer cells and solid tumors was measured for identifying anti-proliferative activities.
A human prostatic adenocarcinoma cell line, LnCAP (ATCC®, CRL-1740) and human leukemia cell line MV4-11 (ATCC®, CRL-9591) were used to test the degrees of the compounds 1 to 18 in inhibiting the cancer cell growth. The testing cell concentration was adjusted to 6.7×10^3 cells/ml with a culture medium supplemented with 10% FBS, in the temperature of 37° C., 5% CO2 and 95% humidity. Culture media and FBS were purchased from GIBCO. 90 μL of cell suspensions thus obtained was added to two 96-well plates with the final cell density of 600 cells/well, followed by addition of 10 μL of culture medium to each well of plate. The plates were incubated overnight in a humidified incubator at 37° C. with 5% CO2.
Compounds 1 to 18 were each dissolved with dimethylsulfoxide (DMSO) or phosphate buffer solution (PBS) as a stock solution, and 200× solutions of test compound (2 mM) using DMSO were prepared. Then, the DMSO solution thus obtained was diluted 20-fold with culture medium or PBS to obtain 10× working solution. 10 μL of 10× working solution (drug solution) was dispensed to each well (triplicate for each concentration). The final concentration of DMSO in culture medium was 0.5% [v/v].
Cell viability was determined using CellTiter-Glo® (CTG) assay. 100 μL of CellTiter-Glo® was added to the equal volume of the cultured cells to read luminescence in EnVision Multi Label Reader.
In general terms: ATP-based viability assays read luminescence as a measure of living cells.

The target of another data set is human BRD4 bromodomain 1 (Homo sapiens (Human), UniProt O60885). Briefly: Bromodomain binding assay (BRD4 Alpha-screen). The note with it: acetylated histone H4 peptide. In general terms: Bead proximity is the source of the signal in Alpha formats.
Data set [6] has as its system MV4-11 human leukemia xenograft. Nature of the data set: Tumor growth inhibition in MV4-11 human leukemia mouse xenograft. The data set is classed as in vivo, NOD/SCID mice. The note with it: PO, 5 d ON/2 d Off × 2 (14 days). The procedure:
Tumor growth inhibition (TGI) activities of compound 1 were tested in MV4-11 human leukemia mouse xenograft.
A total of 48 NOD/SCID female mice of 6-8 weeks age and weighing approximately 18 to 22 g, purchased from HFK (Beijing HFK Bio-Technology Co. Ltd.), were used for tumor inoculation.
The MV4-11 cell line was maintained in vitro in IMDM (Iscove's modified Dulbecco's media) supplemented with 10% fetal bovine serum at 37° C. in an atmosphere of 5% CO2 in air. The tumor cells were routinely subcultured twice weekly by trypsin-EDTA treatment. The cells growing in an exponential growth phase were harvested and counted for tumor inoculation. The treatments were started when the tumor size reached approximately 150-200 mm^3.
Each mouse was inoculated subcutaneously at the right flank with MV4-11 tumor cells (1×10^7 cells) in mixture of 100 ul PBS and 100 ul of Matrigel™ for tumor development. A total of […] mice were used for each group. The amounts of treated compounds are represented in milligram (mg) of compound per kilogram (kg) of animal body weight (mg/kg, mpk). Administration route of the test compound was PO (oral) injection. […]
Tumor sizes were measured using a caliper, once every 4 days, and the tumor volume was expressed in mm^3 using Equation 1: V=0.5a×b^2 [Equation 1] […]
(In general: A xenograft is tissue or cells of one species grown in another, often human tumour cells in immunodeficient mice.)

Turning to `COc1ccc2c(c1)C(c1ccc(Cl)cc1)=N[C@@H](COS(C)(=O)=O)c1nnc(C)n1-2` [Compound 1, (R)-(6-(4-chlorophenyl)-8-methoxy-1-methyl-4H-benzo[f]-[1,2,4]triazolo[4,3-a][1,4]diazepin-4-yl)methyl methanesulfonate], the AUC (usually concentration integrated over time) in data set [1] (IV) worked out at 19.7 µM·h; in data set [1] (PO), 17.3 µM·h. Also, the MRT (usually the average time that molecules of a dose stay in the body) in data set [1] (IV) came to 4.9 h. Further, the clearance (commonly a measure of how efficiently the substance is removed, as volume per time) in data set [1] (IV) came to 5.6 mL/min/kg. In addition, in data set [1] (PO), the bioavailability (in general, the share of a dose that reaches the circulation, judged against a reference dose that is usually intravenous) amounted to 92.3%. Also, the pIC50 was 5.58 in data set [2]; 5.25 in data set [3]; 5.91 in data set [4]; 6.33 in data set [5]; 6.72 on human BRD4 bromodomain 1. In addition, the “% TGI” value in data set [6] (50 mpk) was 77%; in data set [6] (100 mpk), 84%.
